Assay results: ChEMBL document CHEMBL5726547, “Substituted quinazolines as receptor-type kinase inhibitors” (2017)

molecular target: Vascular endothelial growth factor receptor 1 (Homo sapiens, UniProt P17948); experiment: AlphaScreen Assay: In AlphaScreen, when the donor and acceptor beads are close in proximity, a series of photochemical events will give rise to a fluorescent signal upon light activation. Here we use biotinylated poly-(Glu, Tyr) 4:1 as the kinase substrate, streptavidin-coated donor beads and anti-phosphortyrosine antibody PY100-coated acceptor beads. Upon phosphorylation, the peptide substrate …
Sequence (P17948 whole entry): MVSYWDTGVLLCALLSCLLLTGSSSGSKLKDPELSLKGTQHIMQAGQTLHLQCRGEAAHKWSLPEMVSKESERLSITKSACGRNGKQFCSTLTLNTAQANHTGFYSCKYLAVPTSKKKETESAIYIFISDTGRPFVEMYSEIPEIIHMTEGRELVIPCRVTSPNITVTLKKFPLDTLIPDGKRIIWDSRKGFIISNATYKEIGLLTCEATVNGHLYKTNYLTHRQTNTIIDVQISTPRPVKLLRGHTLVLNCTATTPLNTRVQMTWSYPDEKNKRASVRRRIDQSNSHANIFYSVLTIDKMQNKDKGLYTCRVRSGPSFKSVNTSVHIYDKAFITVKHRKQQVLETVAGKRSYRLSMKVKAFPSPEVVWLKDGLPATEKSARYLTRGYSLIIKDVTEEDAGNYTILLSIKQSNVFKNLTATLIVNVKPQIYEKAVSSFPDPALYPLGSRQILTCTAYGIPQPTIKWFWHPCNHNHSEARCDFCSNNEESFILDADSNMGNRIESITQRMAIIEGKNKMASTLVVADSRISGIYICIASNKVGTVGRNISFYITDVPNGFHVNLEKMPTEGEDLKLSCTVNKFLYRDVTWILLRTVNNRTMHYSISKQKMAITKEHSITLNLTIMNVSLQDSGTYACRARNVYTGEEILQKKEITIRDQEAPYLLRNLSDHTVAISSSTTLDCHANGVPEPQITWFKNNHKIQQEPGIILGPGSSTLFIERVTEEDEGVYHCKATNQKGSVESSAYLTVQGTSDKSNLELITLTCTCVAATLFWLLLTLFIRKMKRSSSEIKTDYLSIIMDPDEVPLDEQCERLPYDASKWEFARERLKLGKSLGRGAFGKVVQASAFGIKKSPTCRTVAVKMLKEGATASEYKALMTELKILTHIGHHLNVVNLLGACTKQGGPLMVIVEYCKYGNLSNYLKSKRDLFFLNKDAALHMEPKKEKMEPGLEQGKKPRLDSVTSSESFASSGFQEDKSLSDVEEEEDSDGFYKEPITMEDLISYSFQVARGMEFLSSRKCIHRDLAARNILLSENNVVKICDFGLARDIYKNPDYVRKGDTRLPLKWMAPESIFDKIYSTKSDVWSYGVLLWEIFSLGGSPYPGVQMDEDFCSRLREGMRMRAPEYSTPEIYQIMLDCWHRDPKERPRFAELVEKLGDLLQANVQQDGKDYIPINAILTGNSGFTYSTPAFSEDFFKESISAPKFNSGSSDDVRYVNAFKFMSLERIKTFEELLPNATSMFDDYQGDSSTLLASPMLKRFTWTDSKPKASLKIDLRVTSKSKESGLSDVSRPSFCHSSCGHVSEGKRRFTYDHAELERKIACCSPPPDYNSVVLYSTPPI

Row | Structure (SMILES) | IC50
1 | COc1cc2c(Nc3ccc(Cl)c(Cl)c3F)ncnc2cc1OC[C@H]1CN2CCOCC2CO1 (stereo not given in full) | 50 to 1000 nM
2 | COc1cc2c(Nc3cc(Cl)c(Cl)cc3F)ncnc2cc1OC[C@@H]1CN2CCOCC2CO1 (stereo not given in full) | 50 to 1000 nM
3 | COc1cc2c(Nc3ccc(Br)c(Cl)c3F)ncnc2cc1OC[C@H]1CN2CCOCC2CO1 (stereo not given in full) | 50 to 1000 nM
4 | COc1cc2c(Nc3cc(Cl)c(Br)cc3F)ncnc2cc1OC[C@@H]1CN2CCOCC2CO1 (stereo not given in full) | 50 to 1000 nM
5 | COc1cc2c(Nc3ccc(Cl)c(Cl)c3F)ncnc2cc1OC[C@H]1C[C@@H]2CN(C)C[C@@H]2C1 | 50 to 1000 nM
6 | COc1cc2c(Nc3ccc(F)c(Cl)c3F)ncnc2cc1O[C@H]1CO[C@H]2[C@@H]1OC[C@@H]2OC | 1000 to 20000 nM
7 | COc1cc2c(Nc3cc(Cl)c(Br)cc3F)ncnc2cc1OC[C@H]1CN2CCOCC2CO1 (stereo not given in full) | 50 to 1000 nM
8 | COc1cc2c(Nc3cc(Cl)c(Cl)cc3F)ncnc2cc1OC[C@H]1CN2CCOCC2CO1 (stereo not given in full) | 50 to 1000 nM
9 | COc1cc2c(Nc3ccc(F)c(Cl)c3F)ncnc2cc1OC[C@H]1CN2CCOCC2CO1 (stereo not given in full) | 50 to 1000 nM
10 | COc1cc2c(Nc3ccc(F)c(Cl)c3F)ncnc2cc1OC[C@@H]1CN2CCOCC2CO1 (stereo not given in full) | 50 to 1000 nM
